Reference: publication PMC10133546, “Simultaneous determination of multiple components in rat plasma by UHPLC-sMRM for pharmacokinetic studies after oral administration of Qingjin Yiqi Granules” (Frontiers in Pharmacology, 2023)

How the values were obtained:
[1] = Stability of the working solution (4°C for 1 month); format: physicochemical
[2] = Stability of analytes in rat plasma (auto-sampler, freeze-thaw, room temperature, long-term); conditions: for Autosampler for 24 h Accuracy (%): autosampler 24 h; for Room temperature for 24 h Accuracy (%): room temperature 24 h; for Freeze thaw cycles Accuracy (%): three freeze-thaw cycles
[3] = −80°C for 1 month, concentration 100 ng/mL

Row | SMILES | Working solution Accuracy (%) ([1]; 50 ng/mL) | Working solution Accuracy (%) ([1]; 100 ng/mL) | Working solution Accuracy (%) ([1]; 500 ng/mL) | Autosampler for 24 h Accuracy (%) ([2]; 50 ng/mL) | Room temperature for 24 h Accuracy (%) ([2]; 50 ng/mL) | −80°C for 1month Accuracy (%) ([2]; 50 ng/mL, −80°C 1 month) | Autosampler for 24 h Accuracy (%) ([2]; 100 ng/mL) | Room temperature for 24 h Accuracy (%) ([2]; 100 ng/mL) | −80°C for 1month Accuracy (%) ([2]; 100 ng/mL, −80°C 1 month) | Autosampler for 24 h Accuracy (%) ([2]; 500 ng/mL) | Room temperature for 24 h Accuracy (%) ([2]; 500 ng/mL) | −80°C for 1month Accuracy (%) ([2]; 500 ng/mL, −80°C 1 month) | Autosampler for 24 h Accuracy (%) ([2]; 12.5 ng/mL) | Room temperature for 24 h Accuracy (%) ([2]; 12.5 ng/mL) | Freeze thaw cycles Accuracy (%) ([2]; 12.5 ng/mL) | −80°C for 1month Accuracy (%) ([2]; 12.5 ng/mL, −80°C 1 month) | Freeze thaw cycles Accuracy (%) ([2]; 100 ng/mL) | Freeze thaw cycles Accuracy (%) ([2]; 500 ng/mL) | Working solution Accuracy (%) ([1]; 12.5 ng/mL) | Autosampler for 24 h Accuracy (%) ([2]; 1.56 ng/mL) | also measured
1 | CC(=O)O[C@H]1[C@H](O[C@H]2CC[C@]34C[C@]35CC[C@]3(C)[C@@H]([C@@]6(C)CC[C@@H](C(C)(C)O)O6)[C@@H](O)C[C@@]3(C)[C@@H]5C[C@H](O[C@@H]3O[C@H](CO)[C@@H](O)[C@H](O)[C@H]3O)[C@H]4C2(C)C)OC[C@@H](O)[C@@H]1O [astragaloside II(IS)] | – | – | – | – | – | – | – | – | – | – | – | – | – | – | – | – | – | – | – | – | Working solution Accuracy (%) ([1]; concentration 100 ng/mL): 96.7%; Autosampler for 24 h Accuracy (%) ([2]; concentration 100 ng/mL): 105.0%; −80°C for 1month Accuracy (%) [2, 3]: 115.0%
2 | CC(C)(O[C@@H]1O[C@H](CO)[C@@H](O)[C@H](O)[C@H]1O)[C@@H]1CC[C@](O)(CO)[C@H]2CC(=O)[C@@](C)(O)[C@@H]2C1 [atractyloside A] | 88.5% | 104.0% | 97.2% | 107.0% | 97.6% | 89.7% | 94.4% | 104.0% | 96.2% | 103.0% | 91.2% | 92.2% | – | – | – | – | – | – | – | – | Working solution Accuracy (%) ([1]; 200 ng/mL): 87.0%; Freeze thaw cycles Accuracy (%) ([2]; 50 ng/mL): 84.6%; Autosampler for 24 h Accuracy (%) ([2]; 200 ng/mL): 91.5%; Room temperature for 24 h Accuracy (%) ([2]; 200 ng/mL): 89.9%; Freeze thaw cycles Accuracy (%) ([2]; 200 ng/mL): 97.0%; −80°C for 1month Accuracy (%) ([2]; 200 ng/mL, −80°C 1 month): 93.4%
3 | O=c1cc(-c2ccccc2)oc2cc(O)c(O)c(O)c12 [baicalein] | – | – | – | 92.3% | 85.5% | 90.6% | 92.4% | – | 95.5% | 93.2% | 91.0% | 104.0% | 97.0% | 91.4% | 97.4% | 99.7% | 98.2% | 94.0% | – | – | –
4 | O.Oc1cc(O)c2c(c1)O[C@H](c1ccc(O)c(O)c1)[C@@H](O)C2 [catechin] | 106.0% | 97.4% | 100.0% | – | – | – | – | – | – | – | – | – | – | – | – | – | – | – | 91.6% | – | –
5 | COc1c2c(cc3oc(CO)cc(=O)c13)O[C@H](C(C)(C)O)C2 [cimifugin] | – | – | 86.7% | – | – | – | 100.0% | 98.0% | 99.6% | 102.0% | 98.6% | 95.2% | 91.1% | – | 92.0% | 96.3% | 95.7% | 93.2% | 100.0% | 102.0% | Working solution Accuracy (%) ([1]; 1.56 ng/mL): 90.5%; Room temperature for 24 h Accuracy (%) ([2]; 1.56 ng/mL): 92.4%; Freeze thaw cycles Accuracy (%) ([2]; 1.56 ng/mL): 84.5%; −80°C for 1month Accuracy (%) ([2]; 1.56 ng/mL, −80°C 1 month): 83.9%
6 | O=C(/C=C/c1ccc(O)c(O)c1)O[C@H]1[C@H](O)C[C@](O)(C(=O)O)C[C@H]1O [cryptochlorogenic acid] | 95.0% | 94.6% | 96.8% | 93.1% | 91.2% | 107.0% | 92.7% | – | 110.0% | 109.0% | 100.0% | 104.0% | 94.6% | 90.6% | 84.5% | 90.6% | 88.9% | 98.7% | 87.6% | – | Freeze thaw cycles Accuracy (%) ([2]; 50 ng/mL): 86.6%
7 | CC(C)=CCC[C@](C)(O)[C@H]1CC[C@]2(C)[C@@H]1[C@H](O)C[C@@H]1[C@@]3(C)CC[C@H](O)C(C)(C)[C@@H]3[C@@H](O[C@@H]3O[C@H](CO)[C@@H](O)[C@H](O)[C@H]3O[C@@H]3O[C@H](CO)[C@@H](O)[C@H](O)[C@H]3O)C[C@]12C [ginsenoside Rf] | 94.9% | 110.0% | 102.0% | 98.9% | – | 89.6% | 88.2% | 96.8% | – | – | 113.0% | 112.0% | 112.0% | 96.1% | 97.2% | 97.1% | 89.7% | – | 91.9% | – | Freeze thaw cycles Accuracy (%) ([2]; 50 ng/mL): 88.0%
8 | CC(C)=CCC[C@](C)(O)[C@H]1CC[C@]2(C)[C@@H]1[C@H](O)C[C@@H]1[C@@]3(C)CC[C@H](O)C(C)(C)[C@@H]3[C@@H](O[C@@H]3O[C@H](CO)[C@@H](O)[C@H](O)[C@H]3O)C[C@]12C [ginsenoside Rh1] | 106.0% | 95.1% | – | 86.5% | 100.0% | 107.0% | 90.8% | 96.5% | 93.5% | – | – | – | – | – | – | – | 100.0% | – | – | – | Autosampler for 24 h Accuracy (%) ([2]; concentration 200 ng/mL): 96.5%; Autosampler for 24 h Accuracy (%) ([2]; concentration 500 ng/mL): 108.0%; Room temperature for 24 h Accuracy (%) ([2]; concentration 500 ng/mL): 98.7%; Freeze thaw cycles Accuracy (%) ([2]; concentration 500 ng/mL): 94.1%; −80°C for 1month Accuracy (%) ([2]; −80°C for 1 month, concentration 500 ng/mL): 114.0%
9 | C[C@]1(OC(=O)/C=C/c2ccccc2)C[C@@H](O)[C@]2(O)C=CO[C@@H](O[C@@H]3O[C@H](CO)[C@@H](O)[C@H](O)[C@H]3O)[C@@H]21 [harpagoside] | – | – | 88.5% | – | – | – | 93.8% | 100.0% | – | – | 95.7% | – | 101.0% | 108.0% | 98.1% | – | 93.2% | 95.1% | 105.0% | 105.0% | Working solution Accuracy (%) ([1]; 1.56 ng/mL): 83.8%; Room temperature for 24 h Accuracy (%) ([2]; 1.56 ng/mL): 95.0%; Freeze thaw cycles Accuracy (%) ([2]; 1.56 ng/mL): 91.5%; −80°C for 1month Accuracy (%) ([2]; 1.56 ng/mL, −80°C 1 month): 86.6%
10 | O=c1c(O[C@@H]2O[C@H](CO)[C@H](O)[C@H](O)[C@H]2O)c(-c2ccc(O)c(O)c2)oc2cc(O)cc(O)c12 [hyperoside] | – | 91.2% | 95.0% | – | – | – | 90.5% | 95.4% | 88.8% | 95.8% | 99.1% | – | 101.0% | – | 98.4% | 100.0% | 93.5% | 95.3% | 92.1% | 111.0% | Room temperature for 24 h Accuracy (%) ([2]; 1.56 ng/mL): 91.6%; Freeze thaw cycles Accuracy (%) ([2]; 1.56 ng/mL): 97.6%; −80°C for 1month Accuracy (%) ([2]; 1.56 ng/mL, −80°C 1 month): 106.0%
11 | COc1ccc(-c2oc3c(CC=C(C)C)c(O[C@@H]4O[C@H](CO)[C@@H](O)[C@H](O)[C@H]4O)cc(O)c3c(=O)c2O[C@@H]2O[C@@H](C)[C@H](O)[C@@H](O)[C@H]2O)cc1 [icariin (IS)] | – | – | – | – | – | – | – | – | – | – | – | – | – | – | – | – | – | – | – | – | Working solution Accuracy (%) ([1]; concentration 100 ng/mL): 94.8%
12 | O=C(/C=C/c1ccc(O[C@@H]2O[C@H](CO)[C@@H](O)[C@H](O)[C@H]2O)cc1)c1ccc(O)cc1O [isoliquiritin] | – | – | 93.3% | – | – | – | 107.0% | 96.6% | 106.0% | 96.3% | 96.7% | 95.0% | 108.0% | 87.5% | 90.9% | – | 94.5% | 91.6% | 110.0% | 99.3% | Working solution Accuracy (%) ([1]; 1.56 ng/mL): 106.0%; Room temperature for 24 h Accuracy (%) ([2]; 1.56 ng/mL): 88.9%; Freeze thaw cycles Accuracy (%) ([2]; 1.56 ng/mL): 95.5%; −80°C for 1month Accuracy (%) ([2]; 1.56 ng/mL, −80°C 1 month): 83.8%
13 | COc1c2ccoc2c(OC)c2oc(=O)ccc12 [isopimpinellin (IS)] | – | – | – | – | – | – | – | – | – | – | – | – | – | – | – | – | – | – | – | – | Working solution Accuracy (%) ([1]; concentration 100 ng/mL): 93.5%; Autosampler for 24 h Accuracy (%) ([2]; concentration 100 ng/mL): 98.6%; Room temperature for 24 h Accuracy (%) ([2]; concentration 100 ng/mL): 96.5%; Freeze thaw cycles Accuracy (%) ([2]; concentration 100 ng/mL): 88.2%; −80°C for 1month Accuracy (%) [2, 3]: 109.0%
